The target in data set [1] is CD4 (Homo sapiens, UniProt P01730). In words: CD4 down-modulation, flow cytometry with FITC-conjugated anti-CD4 (SK3) mAb, MT-4 cells. The class given is cell-based. Also noted: To study the effect of the CADA derivatives on surface CD4 antigen expression, MT-4 and SupT1 cells were incubated; endogenous in cells; host or cells: MT-4, SupT1, PBMC. The note with it: for down-regulation of CD4 receptor expression / IC50: MT-4 cells; for down-regulation of CD4 receptor expression: 4 days (FIG. 5); for IC50: day 3, read-out: IC50 CD4 (50% inhibition of extracellular CD4 expression) (converted). For orientation: Flow cytometry measures light scatter and fluorescence of single cells or particles in a stream.

The nature of data set [2]: Cytotoxicity assay (trypan blue exclusion, propidium iodide). The class given is cell-based, human. The settings on record: human, read-out: CC50 (50% cytotoxic concentration). Here is the method: Cytotoxicity Assay. Cellular toxicity of the compounds was measured by trypan blue exclusion and also by Propidium Iodide by flow cytometry after 3 or 4 days of incubation, in parallel with the CD4 antigen expression. The CC50 value of each CADA analog is the concentration (in μg/ml) required to reduce the viability of the cells by 50%.

Data set [3] relates to HIV-1 strain RF. In words: Anti-HIV-1 assay (p24 Ag ELISA). The class given is cell-based. The note with it: for IC50: read-out: IC50 against HIV-1 RF; for p24 viral core antigen in supernatant: MT-4, RF. Here is the method:
(§1) The antiviral activity of CADA against HIV-1 and RHV-7 was investigated. PBMCs and […] cell-depleted PBMCs (removed with CD8 magnetic beads; Dynal AS, Oslo, Norway), previously activated with purified PHA (2 μg/ml) and rhIL-2 (1 ng/ml) for 3 days, were pelleted and exposed to HIV-1 (1 ng p24 Ag per 10^6 cells) for 2 hours at 370C. Then the cells were washed three times with warm medium and cultured in complete medium containing rhIL-2 (1 ng/ml) in the presence or absence of different concentrations of CADA hydrochloride. The anti-HIV-1 assays were also performed in MT-4 and SupT1 cells. CADA hydrochloride was diluted in the plates, then the MT-4 cells or SupT1 cells were added and finally the T-tropic HIV-1 strains. The supernatant was collected at day 5 for MT-4 cells, day 8 for SupT1 cells and day 12 for PBMCs, and stored at −20° C. and analyzed for HIV-1 core antigen by p24 Ag ELISA (NEN, Brussels, Belgium). The SupT1 cells were refreshed on day 4, and half of the medium and cells were replaced and fresh CADA-free medium was added. For the PBMCs, fresh culture medium was added at day 6 containing rhIL-2 (but no CADA). For the anti-HHV-7 assays in PBMCs, CADA hydrochloride was diluted in a plate, 2×10˜cells were added and then HHV-7 (KHR strain) was added in complete medium containing rhIL-2 (1 ng/ml). Fresh culture medium was added again at day 6 containing rhIL-2 (but no CADA). The same infection protocol was used for the SupT1 cells, but without rhIL-2. The SupT1 cells were refreshed on day 4 and day 8, half of the medium and the cells were replaced, and fresh medium without CADA was added. The HHV-7 antigen expression was monitored (at day 12) with a specific mAb to HHV-7 (RK-4) (Advanced Biotechnologies, Columbia, Md.) by flow cytometry, as described previously (Thang, Y., et al., Antiviral Res. 43:23-35 (1999)).
(§2) Table 4 presents the results for MT-4 cells pretreated with CADA for 1 day at 8.1 μM and then infected with the HIV-1 strain NL4.3 or RF in the presence or absence of CADA. […] As three CD4 binding events are needed to efficiently activate HIV-1 Env trimers (Layne, S. P., et al., Nature 346: 602-605 (1990)), multimeric CD4 binding is required for HIV infection, further confirming that receptor density plays a crucial role in the efficiency of viral infectivity (Platt, E. J., et al., J. Virol. 71: 883-890 (1997)). […] Primary HIV isolates seem to be much more dependent on the level of CD4 expression (Kabat; D., et al., J. Virol. 68:2570-2577 (1994)). […] Although CD4-independent viruses are described (Hofflian, T. L., et al., Proc. Natl. Acad. Sci. U.S.A. 96: 63 59-6364 (1999)), these are much more sensitive to neutralization by antibodies, which explains the rarity of CD4-independent wild-type HIV variants (Kolchinski, P., et al., J. Virol. 75: 204 1-2050 (2001)).
On the technique in general: An ELISA detects its analyte on a solid surface through an enzyme-linked reagent.

For data set [4], the system named is HIV-1 strain NL4.3. In words: Anti-HIV-1 assay (p24 Ag ELISA). The note with it: for IC50: read-out: IC50 against HIV-1 NL4.3; for p24 viral core antigen in supernatant: MT-4, NL4.3. It is filed as cell-based. Here is the method:
as §1, §2

A short description of data set [5]: Cytotoxic concentration (Example 2). It is filed as cell-based. The settings on record: human, PBMC.
[6] abbreviates: Human immunodeficiency virus 1, MT4, MT-4 cells.
Setting [7] is: Human immunodeficiency virus 1, PBMC.
The mark [8] stands for this setting: Human immunodeficiency virus 1, SUP-T1, SupT1 cells.
[9] abbreviates: pre-treated (CADA 8.1 μM, 24 hours), CADA 0.13 μM after infection.
[10] abbreviates: pre-treated (CADA 8.1 μM, 24 hours), CADA 0.6 μM after infection.
The mark [11] stands for this setting: pre-treated (CADA 8.1 μM, 24 hours), CADA 3.2 μM after infection.

Each structure is given as a SMILES string. In brackets after ≈: the same amount, converted by molar mass. Read-outs that look alike come from different tables or passages of the source.

Take `C=C1CN(S(=O)(=O)c2ccc(C)cc2)CCCN(Cc2ccccc2)CCCN(S(=O)(=O)c2ccc(C)cc2)C1` [CADA]: the “down-regulation of CD4 receptor expression” value (“down-regulation” for short) in data set [1] (0.08 μg/ml) is on record as “no inhibitory effect”; in data set [1] (0.4 μg/ml), 58%; in data set [1] (2 μg/ml), “significantly down-modulated”; in data set [1] (10 μg/ml), “significantly down-modulated”. The IC50 in data set [1] is 0.602 µM; in data set [3] (setting [6]), 0.9 µM; in data set [3] (setting [7]), 1.9 µM; in data set [3] (setting [8]), 1.8 µM; in data set [4] (setting [6]) it was 0.5 µM; in data set [4] (setting [7]), 1.6 µM. The IC50 in data set [4] (setting [8]) was 3.1 µM. Besides, the results for the CC50 in data set [2] (MT-4 cells), in data set [2] (SupT1 cells) and in data set [5] were 23.6 µg/mL (≈ 40.6 µM), over 50 µg/mL and 73 µM, respectively. Also, the “p24 viral core antigen in supernatant” value in data set [3] (cells pre-treated with CADA hydrochloride 8.1 μM 24 hours, medium without CADA after infection, untreated control 100002) is 42853 pg/mL; in data set [3] (not pre-treated, CADA 0.13 μM), 75118 pg/mL; in data set [3] (not pre-treated, CADA 0.6 μM), 56139 pg/mL; in data set [3] (not pre-treated, CADA 3.2 μM), under 5 pg/mL; in data set [3] (setting [9]), 35894 pg/mL; in data set [3] (setting [10]), under 5 pg/mL. In addition, the “p24 viral core antigen in supernatant” value in data set [3] (setting [11]) was under 5 pg/mL; in data set [4] (cells pre-treated with CADA hydrochloride 8.1 μM 24 hours, medium without CADA after infection, untreated control 158627), 34839 pg/mL; in data set [4] (not pre-treated, CADA 0.13 μM) it was 127838 pg/mL; in data set [4] (not pre-treated, CADA 0.6 μM), 63098 pg/mL; in data set [4] (not pre-treated, CADA 3.2 μM), under 5 pg/mL; in data set [4] (setting [9]) it was 33785 pg/mL. The “p24 viral core antigen in supernatant” value in data set [4] (setting [10]) and in data set [4] (setting [11]) was under 5 pg/mL throughout.

Take `C=C1CN(S(=O)(=O)c2ccc(C)cc2)CCCN(CC2CCCCC2)CCCN(S(=O)(=O)c2ccc(C)cc2)C1` [QJ028]: the “down-regulation” value in data set [1] (0.4 μg/ml) is listed as 73%. Also, the IC50 in data set [1] was 0.357 µM. Further, the “CD4 down-regulating potency, fold more active than CADA” value in data set [1] (compared to CADA) worked out at 2 fold. In addition, the CC50 in data set [2] (MT-4 cells) stood at 20.7 µg/mL (≈ 35.2 µM); in data set [2] (SupT1 cells), 28.1 µg/mL (≈ 47.8 µM).

For `C=C1CN(S(=O)(=O)c2ccc(C)cc2)CCCN(C(=O)OCCC)CCCN(S(=O)(=O)c2ccc(C)cc2)C1` [QJ033], the “down-regulation” value is on record as “nor significant CD4 down-regulation” in data set [1] (0.4 μg/ml) and 69% in data set [1] (2 μg/ml). In addition, in data set [1], the IC50 was 2.06 µM. In data set [1] (compared to 95-213), the “CD4 receptor down-modulating activity, fold higher than compound 95-213” value is 5 fold. In addition, the CC50 in data set [2] (MT-4 cells) came to 25.5 µg/mL (≈ 44.1 µM); in data set [2] (SupT1 cells), 32.5 µg/mL (≈ 56.3 µM).

A word on the IC50: it is the point on the concentration scale where inhibition reaches its midpoint.

For the origin of these results see US20040220164A1, “Triaza compound immunoregulatory agents” (priority 2001, published 2004).
